Reference: patent publication US3958014A, “Process for preparing injection-purpose fluorocarbon emulsion capable of carrying oxygen” (The Green Cross Corporation, priority 1970, dated 1976)

What was measured:
[1] = accumulation of intravenously injected fluorocarbon in liver and spleen; format: in vivo, laboratory animals; conditions: for fluorocarbon administered remaining in the organs (liver and spleen): 8 weeks from administration
Procedure: (§1) The present invention is specific in a number of aspects both as to the nature of materials used and the particle sizes and the like, of the resulting emulsion. These parameters were not arrived at casually but rather were determined through a systematic course of investigations which are discussed below. Parameters not expressly discussed below will be apparent to the skilled worker and appropriate conditions will be appreciated. Fluorocarbon - The sole fluorocarbons applicable to the present invention are perfluorodecalin or perfluoromethyldecalin or their mixture. A surfactant or emulsifying agent is also used and surfactant capable of emulsifying and stabilizing these fluorocarbons is egg yolk lecithin and preferably in an amount of from about 3 W/V % to 5 W/V % based on emulsion. There are a number of good reasons for the specificity of the fluorocarbon compounds that are useful.
On the other hand when an emulsion of perfluorodecalin and perfluoromethyldecalin is injected into the veins, of laboratory animals their accumulated in the animal's liver and spleen is very small. For example, perfluorodecalin is as low as zero % and perfluoromethyldecalin is 1.5% even after 8 weeks.

laboratory animal = assay: toxicity on injection of fluorocarbon emulsion into veins; format: in vivo, laboratory animals; conditions: emulsion injected into the veins
Procedure: as §1

Row | accumulation in the animal's liver and spleen ([1]; in vivo, iv) | Compound | accumulation in the animal's liver and spleen ([1]; i.v. emulsion) | fluorocarbon administered remaining in the organs (liver and spleen) ([1]; i.v. emulsion) | lung hazard (laboratory animal) | toxicity (laboratory animal)
1 | – | perfluoromethyldecalin | very small | 1.5% | – | –
2 | very small | FC1(F)C(F)(F)C(F)(F)C2(F)C(F)(F)C(F)(F)C(F)(F)C(F)(F)C2(F)C1(F)F (centres unmarked) [perfluorodecalin] | – | – | – | –
3 | – | FC(F)(F)C(F)(F)C(F)(F)C(F)(F)C1(F)OC(F)(F)C(F)(F)C1(F)F (centres unmarked) [FX-80, perfluorobutyltetrahydrofuran] | – | – | a remarkable lung hazard appears | its toxicity is quite high
4 | – | FC(OC(F)(F)C(F)(OC(F)(F)C(F)(OC(F)(F)C(F)(OC(F)(F)C(F)(F)C(F)(F)F)C(F)(F)F)C(F)(F)F)C(F)(F)F)C(F)(F)F (centres unmarked) [Freon E4, 2-monohydro-nonacosafluoro3,6,9,12-tetraoxa-5,8,11-trimethylpentadecane] | most of these fluorocarbons are accumulated in the animal's liver and spleen | up to 40% | – | the toxicity resulting from the accumulation appears
5 | – | FC(F)(F)C(F)(F)C(F)(F)C(F)(F)N(C(F)(F)C(F)(F)C(F)(F)C(F)(F)F)C(F)(F)C(F)(F)C(F)(F)C(F)(F)F [FC-43, perfluorotributylamine] | most of these fluorocarbons are accumulated in the animal's liver and spleen | up to 40% | – | the toxicity resulting from the accumulation appears
